Here are results for six compounds from patent US5039528A, “EAA antagonists as anti-emetic drugs” (priority 1989, dated 1991).

Series [1] deals with ferrets. Particulars: ferrets treated with cisplatin; cited from earlier work.
The subject of another series is cancer patients. Conditions: cited from earlier work.
The subject of a further series is 5-HT M receptors. Conditions: cited from earlier work.
The next series relates to NMDA receptors. As to the kind of experiment: Chick retina assay: protection against excitotoxic action of NMDA. The series is classed as cell-based. An excerpt: (§1) Antagonist potencies were established in a chick retina assay which has
(§2) (NMDA, KA and Quis) for excitotoxic properties and EAA antagonists for
(§3) potency in protecting the retina against the excitotoxic action of such
(§4) agonists. The concentration of antagonist required to totally prevent the
(§5) toxic action of an agonist was used to compare antagonists for potency.
(§6) For purposes of illustration, the data were normalized by assigning a
(§7) EAA antagonist properties have been described in each category. Antagonis
(§8) potencies were established in a chick retina assay which has been used by
(§9) Quis) for excitotoxic properties and EAA antagonists for potency in
(§10) protecting the retina against the excitotoxic action of such agonists.
(§11) concentration of antagonist required to totally prevent the toxic action
(§12) of an agonist was used to compare antagonists for potency. For purposes o
(§13) to kynurenic acid vs KA (see table 1) and all other values were adjusted

The test system of the next series is KA receptors. Kind of series: Chick retina assay: protection against excitotoxic action of KA. The class given is cell-based. Particulars: Table 1, normalized to kynurenic acid vs KA = 1.
Source text: as §1, §2, §3, §4, §5, §6, §7, §8, §9, §10, §11, §12, §13

A further series concerns Quis receptors. Kind of series: Chick retina assay: protection against excitotoxic action of Quis. The series is classed as cell-based. Conditions: Table 1, normalized to kynurenic acid vs KA = 1.
Source text: as §1, §2, §3, §4, §5, §6, §7, §8, §9, §10, §11, §12, §13

Another series relates to non-NMDA receptors. As to the kind of experiment: Chick retina assay: blocking non-NMDA receptors. Conditions: chick retinas, relative to Kyn. The series is classed as cell-based.
Series [2] deals with EAA receptors (NMDA, KA, Quis). Particulars: cited from earlier work.
A further series deals with cerebral ischemia. Conditions: animal experiments, cerebral ischemia (stroke); cited from earlier work.
A further series concerns humans. Particulars: cited from earlier work; for psychotic effects: humans; for serious side effects: interaction with NMDA receptors throughout the brain.
Another series deals with dogs. As to the kind of experiment: Emesis induction by NMDA in dogs; blockage by D-AP5. The series is classed as in vivo, dog. Particulars: IV, in the vicinity of 5 mg/kg. As to the method:
Therefore, each dog (all were young adults) was used for more than one experiment. Typically, one or more tests would be done using NMDA to determine an effective dosage for an individual dog. After the dose was established, an experiment was conducted on a subsequent day in which the dog also received 2 mg/kg D-AP5 subcutaneously (SC), along with the NMDA. On the day after that, NMDA was administered alone, to ensure that the emetic response was unchanged and the dog had not developed tolerance or sustained damage to the emesis-mediating reflexes.

For series [3] the following is noted: statement in text, cited from earlier work.
Series [4] has as its system ferrets. Kind of series: Emesis induction by cisplatin (8 mg/kg IV) in ferrets; blockage by Kyn. The class given is in vivo, ferret. Particulars: cisplatin 8 mg/kg IV alone, 4 ferrets, 5 h observation. As to the method: Four ferrets (a control group) received 8 mg/kg IV cisplatin, a chemotherapeutic drug which has a powerful emetic effect.
Nine ferrets were treated with cisplatin (8 mg/kg IV), and with Kyn, either by bolus (one-shot) injection using 150 mg/kg, or by continuous IV infusion using 50 mg/kg/hour.

The subject of series [5] is ferrets. Kind of series: Emesis induction by cisplatin (10 mg/kg IV) in ferrets; blockage by D-AP5/CNQX. The series is classed as in vivo, ferret. Conditions: cisplatin 10 mg/kg IV alone, five ferrets, 5 h. How it is done: Since suitable agents such as D-AP5 are available that can block NMDA receptors without crossing the BBB, a mixture of CNQX and D-AP5 was tested to see whether a mixture of an NMDA antagonist and a non-NMDA antagonist would have anti-emetic properties. The dosage of cisplatin was increased to 10 mg/kg IV, since only 3 out of 4 of the control animals vomited when 8 mg/kg was used as described in Example 4. This increased the stringency of the test.
Five control animals (ferrets) were treated.
Five test animals were treated by cisplatin, 10 mg/kg IV, followed by intravenous infusion of a mixture of 15 mg/kg/hr CNQX and 5 mg/kg/hr D-AP5.

[6] abbreviates: of 20 cancer patients, no control group.
The mark [7] stands for this setting: Table 2, normalized to kynurenic acid vs KA = 1.

Like-named read-outs stand apart in the source and are kept apart here.

Consider `CN1C2CCCC1CC(NC(=O)c1nn(C)c3ccccc13)C2` (stereo not drawn) [BRL 43694], for which the “preventing or reducing the severity of emesis” value in the series on ferrets [1] is given as “effective in preventing or reducing the severity of emesis”. In addition, in the series on cancer patients (setting [6]), the “patients with both nausea and vomiting (delayed in onset)” value is given as 9 patients; the “patients with mild nausea” value is 4 patients; the “patients with neither nausea nor vomiting” value is on record as 7 patients. In the series with cancer patients (of the 5 patients that received cisplatin), the “cisplatin patients with nausea and vomiting” value is on record as 4 patients. Further, in the series on 5-HT M receptors, the “5-HT M receptor antagonism” value is “more powerful and selective 5-HT M receptor antagonist than metoclopramide”.
As to `N#Cc1cc2[nH]c(=O)c(=O)[nH]c2cc1[N+](=O)[O-]` [CNQX], in the series on NMDA receptors (Table 1, normalized to kynurenic acid vs KA = 1), the “EAA antagonist potency vs NMDA” value amounted to 5. The “EAA antagonist potency vs KA” value with KA receptors was found to be 30. For the same compound, the “EAA antagonist potency vs Quis” value in the series with Quis receptors is reported as 67. Further, the “times more powerful than Kyn in blocking non-NMDA receptors” value in the series with non-NMDA receptors is on record as “approximately 30 times”. Besides, in [2], the “block of non-NMDA vs NMDA receptors” value is reported as “block non-NMDA receptors substantially more powerfully than NMDA receptors” and the “potency compared with kynurenic or 7-chloro-kynurenic acid” value is recorded as “significantly more powerful”.
On to `C[C@]12N[C@H](Cc3ccccc31)c1ccccc12` [MK-801], for which the “EAA antagonist potency vs NMDA” value with NMDA receptors (setting [7]) amounted to 5000. Besides, in the series with cerebral ischemia, the neuroprotective effects entry is listed as “powerful neuroprotective effects”. Also, in the series with humans, the psychotic effects entry is recorded as “psychotic effects”; the serious side effects entry is “psychotic disturbances and pathomorphological changes in cerebrocortical neurons”.
Turning to `CN[C@H](CC(=O)O)C(=O)O` [NMDA, N-methyl-D-aspartate], the “emetic response to NMDA” value in the series with dogs is given as “vomiting can be induced”. For the same compound, the “penetration of blood brain barriers” value in series [3] is recorded as “does not penetrate the BBB”.
Take `c1ccc(C2(N3CCCCC3)CCCCC2)cc1` [PCP, phencyclidine]: the “EAA antagonist potency vs NMDA” value in the series with NMDA receptors (setting [7]) was found to be 2000. Besides, in the series with cerebral ischemia, the neuroprotective effects result is on record as “powerful neuroprotective effects”. The “penetration of blood brain barriers” value in [3] is “readily penetrate BBB”. Also, in series [3] (listed as phencyclidine), the “penetration of blood brain barriers” value is “permeate easily through BBB's”. For the same compound, in the series with humans, the psychotic effects entry is on record as “psychotic effects”; the serious side effects result is “psychotic disturbances and pathomorphological changes in cerebrocortical neurons”.
In the case of `N.N.[Cl][Pt][Cl]` [cisplatin], in the series with ferrets [4], the malaise after cisplatin entry is reported as “All four control animals displayed persistent malaise” and the vomiting after cisplatin result is reported as “One control animal did not vomit, but the other three vomited repeatedly”. The appearance of illness result in the series on ferrets [5] is on record as “all appeared ill throughout the observation period”.
